Data reported in patent US12594276B2, “Inhibitors of human immunodeficiency virus replication” (ViiV Healthcare UK (No.5) Limited, priority 2024, dated 2026).
Where two headings read alike, the source gives them in different places.

Columns and labels:
[1] = Compound cytotoxicity, XTT-based colorimetric assay; format: cell-based; conditions: human
Protocol: Compound cytotoxicity and the corresponding CC50 values were determined using the same protocol as described in the antiviral assay except that uninfected cells were used. Cytotoxicity was assessed on day 4 in uninfected MT2 cells by using an XTT (2,3-bis[2-Methoxy-4-nitro-5-sulfophenyl]-2H-tetrazolium-5-carboxyanilide inner salt)-based colorimetric assay (Sigma-Aldrich, St Louis, Mo).

[2] = test system: recombinant NL4-3 virus (nef section replaced with Renilla luciferase gene) in MT-2 cells; assay: HIV cell culture assay (antiviral activity, luciferase readout); format: cell-based; conditions: Renilla, NL43, MT-2 cells infected for 4-5 days with recombinant NL4-3 Renilla luciferase virus
Protocol: HIV cell culture assay—MT-2 cells, 293T cells and the proviral DNA clone of NL4-3 virus were obtained from the NIH AIDS Research and Reference Reagent Program. MT-2 cells were propagated in RPMI 1640 media supplemented with 10% heat inactivated fetal bovine serum (FBS), […]. The 293T cells were propagated in DMEM media supplemented with 10% heat inactivated FBS, […]. A recombinant NL4-3 proviral clone, in which a section of the nef gene was replaced with the Renilla luciferase gene, was used to make the reference virus used in these studies. The recombinant virus was prepared through transfection of the recombinant NL4-3 proviral clone into 293T cells using Transit-293 Transfection Reagent from Mirus Bio LLC (Madison, WI). Supernatant was harvested after 2-3 days and the amount of virus present was titered in MT-2 cells using luciferase enzyme activity as a marker by measuring luciferase enzyme activity. Luciferase was quantitated using the EnduRen Live Cell Substrate from Promega (Madison, WI). Antiviral activities of compounds toward the recombinant virus were quantified by measuring luciferase activity in MT-2 cells infected for 4-5 days with the recombinant virus in the presence of serial dilutions of the compound.
The 50% effective concentration (EC50) was calculated by using the exponential form of the median effect equation where (Fa)=1/[1+(ED50/drug conc.)m](Johnson V A, Byington R T. Infectivity Assay. In Techniques in HIV Research. ed. Aldovini A, Walker B D. 71-76. New York: Stockton Press. 1990). Curve fitting and analysis were performed with ActivityBase XE Runner software version 9.1.0.4 using model 203 (ID Business Solutions, LTD, Guildford, UK).

[3] = uninfected MT2 cells, day 4, XTT, read-out: CC50

Cc1cc(C2CCC(F)(F)CC2)nc2nc([C@H](Cc3cc(F)cc(F)c3)NC(=O)Cn3nc(C4CC4)c4c3C[C@@H]3C[C@H]43)n(-c3ccc(Cl)c4c(NS(C)(=O)=O)nn(CCN5[C@@H]6CC[C@H]5COC6)c34)c(=O)c12 (atropisomer, axis not shown; (P)) [Example 6, N-[(1S)-1-[(3P)-3-(4-chloro-3-methanesulfonamido-1-{2-[(1R,5S)-3-oxa-8-azabicyclo[3.2.1]octan-8-yl]ethyl}-1H-indazol-7-yl)-7-(4,4-difluorocyclohexyl)-5-methyl-4-oxo-3H,4H-pyrido[2,3-d]pyrimidin-2-yl]-2-(3,5-difluorophenyl)ethyl]-2-[(2S,4S)-9-cyclopropyl-7,8-diazatricyclo[4.3.0.0^2,^4]nona-1(6),8-dien-7-yl]acetamide]
CC50 at 4 days [1]: > 50000 pM | EC50 [2]: 6 pM

CS(=O)(=O)Nc1nn(CCN2CCCCC2)c2c(-n3c([C@H](Cc4cc(F)cc(F)c4)NC(=O)Cn4nc(C(F)F)c5c4C(F)(F)[C@@H]4C[C@H]54)nc4nc(C5CCC(F)(F)CC5)ccc4c3=O)ccc(Cl)c12 (atropisomer, axis not shown; (P)) [Example 165, N-[(1S)-1-[(3P)-3-{4-chloro-3-methanesulfonamido-1-[2-(piperidin-1-yl)ethyl]-1H-indazol-7-yl}-7-(4,4-difluorocyclohexyl)-4-oxo-3H,4H-pyrido[2,3-d]pyrimidin-2-yl]-2-(3,5-difluorophenyl)ethyl]-2-[(2S,4R)-9-(difluoromethyl)-5,5-difluoro-7,8-diazatricyclo[4.3.0.0^2,^4]nona-1(6),8-dien-7-yl]acetamide]
CC50 at 4 days [1, 3]: > 50000 pM | EC50 [2]: 31 pM

Cc1cc(C2(F)CCC(F)(F)CC2)nc2nc([C@H](Cc3cc(F)cc(F)c3)NC(=O)Cn3nc(C(F)(F)F)c4c3C(F)(F)[C@@H]3C[C@H]43)n(-c3ccc(Cl)c4c(NS(C)(=O)=O)nn(CCN5C[C@@H](C)O[C@@H](C)C5)c34)c(=O)c12 (atropisomer, axis not shown; (P)) [Example 594, N-[(1S)-1-[(3P)-3-(4-chloro-1-{2-[(2R,6S)-2,6-dimethylmorpholin-4-yl]ethyl}-3-methanesulfonamido-1H-indazol-7-yl)-5-methyl-4-oxo-7-(1,4,4-trifluorocyclohexyl)-3H,4H-pyrido[2,3-d]pyrimidin-2-yl]-2-(3,5-difluorophenyl)ethyl]-2-[(2S,4R)-5,5-difluoro-9-(trifluoromethyl)-7,8-diazatricyclo[4.3.0.0^2,^4]nona-1(6),8-dien-7-yl]acetamide]
CC50 at 4 days [1, 3]: > 20000 pM | EC50 [2]: 11 pM

COCCNc1cc(C2CCC(F)(F)CC2)nc2nc([C@H](Cc3cc(F)cc(F)c3)NC(=O)Cn3nc(C(F)F)c4c3C(F)(F)[C@@H]3C[C@H]43)n(-c3ccc(Cl)c4c(NS(C)(=O)=O)nn(CCN5CCCC(F)(F)C5)c34)c(=O)c12 (atropisomer, axis not shown; (P)) [Example 416, N-[(1S)-1-[(3P)-3-{4-chloro-1-[2-(3,3-difluoropiperidin-1-yl)ethyl]-3-methanesulfonamido-1H-indazol-7-yl}-7-(4,4-difluorocyclohexyl)-5-[(2-methoxyethyl)amino]-4-oxo-3H,4H-pyrido[2,3-d]pyrimidin-2-yl]-2-(3,5-difluorophenyl)ethyl]-2-[(2S,4R)-9-(difluoromethyl)-5,5-difluoro-7,8-diazatricyclo[4.3.0.0^2,^4]nona-1(6),8-dien-7-yl]acetamide]
CC50 at 4 days [1, 3]: > 20000 pM | EC50 [2]: 12 pM

COCCCn1nc(NS(C)(=O)=O)c2c(Cl)ccc(-n3c([C@H](Cc4cc(F)cc(F)c4)NC(=O)Cn4nc(C(F)F)c5c4C(F)(F)[C@@H]4C[C@H]54)nc4nc(C5CCC(F)(F)CC5)cc(CN5C[C@@H](C)O[C@@H](C)C5)c4c3=O)c21 (atropisomer, axis not shown; (P)) [Example 448, N-[(1S)-1-[(3P)-3-[4-chloro-3-methanesulfonamido-1-(3-methoxypropyl)-1H-indazol-7-yl]-7-(4,4-difluorocyclohexyl)-5-{[(2R,6S)-2,6-dimethylmorpholin-4-yl]methyl}-4-oxo-3H,4H-pyrido[2,3-d]pyrimidin-2-yl]-2-(3,5-difluorophenyl)ethyl]-2-[(2S,4R)-9-(difluoromethyl)-5,5-difluoro-7,8-diazatricyclo[4.3.0.0^2,4]nona-1(6),8-dien-7-yl]acetamide]
CC50 at 4 days [1, 3]: > 20000 pM | EC50 [2]: 9 pM

Cc1cc(C2(F)CCC(F)(F)CC2)nc2nc([C@H](Cc3cc(F)cc(F)c3)NC(=O)Cn3nc(C4CC4)c4c3C[C@@H]3C[C@H]43)n(-c3ccc(Cl)c4c(NS(C)(=O)=O)nn(CCN5[C@@H]6CC[C@H]5COC6)c34)c(=O)c12 (atropisomer, axis not shown; (P)) [Example 593, N-[(1S)-1-[(3P)-3-(4-chloro-3-methanesulfonamido-1-{2-[(1R,5S)-3-oxa-8-azabicyclo[3.2.1]octan-8-yl]ethyl}-1H-indazol-7-yl)-5-methyl-4-oxo-7-(1,4,4-trifluorocyclohexyl)-3H,4H-pyrido[2,3-d]pyrimidin-2-yl]-2-(3,5-difluorophenyl)ethyl]-2-[(2S,4S)-9-cyclopropyl-7,8-diazatricyclo[4.3.0.0^2,^4]nona-1(6),8-dien-7-yl]acetamide]
CC50 at 4 days [1]: > 20000 pM | EC50 [2]: 17 pM

Cc1cc(C2(F)CCC(F)(F)CC2)nc2nc([C@H](Cc3cc(F)cc(F)c3)NC(=O)Cn3nc(C4CC4)c4c3C[C@@H]3C[C@H]43)n(-c3ccc(Cl)c4c(NS(C)(=O)=O)nn(CCN5CCO[C@@H](C(C)C)C5)c34)c(=O)c12 (atropisomer, axis not shown; (P)) [Example 581, N-[(1S)-1-[(3P)-3-(4-chloro-3-methanesulfonamido-1-{2-[(2S)-2-(propan-2-yl)morpholin-4-yl]ethyl}-1H-indazol-7-yl)-5-methyl-4-oxo-7-(1,4,4-trifluorocyclohexyl)-3H,4H-pyrido[2,3-d]pyrimidin-2-yl]-2-(3,5-difluorophenyl)ethyl]-2-[(2S,4S)-9-cyclopropyl-7,8-diazatricyclo[4.3.0.0^2,^4]nona-1(6),8-dien-7-yl]acetamide]
CC50 at 4 days [1, 3]: > 20000 pM | EC50 [2]: 15 pM

Cc1cc(C2CCC(F)(F)CC2)nc2nc([C@H](Cc3cc(F)cc(F)c3)NC(=O)Cn3nc(C(F)(F)F)c4c3C(F)(F)[C@@H]3C[C@H]43)n(-c3ccc(Cl)c4c(NS(C)(=O)=O)nn(CCN5CC(C)(C)OC(C)(C)C5)c34)c(=O)c12 (atropisomer, axis not shown; (P)) [Example 609, N-[(1S)-1-[(3P)-3-{4-chloro-3-methanesulfonamido-1-[2-(2,2,6,6-tetramethylmorpholin-4-yl)ethyl]-1H-indazol-7-yl}-7-(4,4-difluorocyclohexyl)-5-methyl-4-oxo-3H,4H-pyrido[2,3-d]pyrimidin-2-yl]-2-(3,5-difluorophenyl)ethyl]-2-[(2S,4R)-5,5-difluoro-9-(trifluoromethyl)-7,8-diazatricyclo[4.3.0.0^2,^4]nona-1(6),8-dien-7-yl]acetamide]
EC50 [2]: 33 pM

CC1(C)CN(CCn2nc(NS(C)(=O)=O)c3c(Cl)ccc(-n4c([C@H](Cc5cc(F)cc(F)c5)NC(=O)Cn5nc(C(F)F)c6c5C(F)(F)[C@@H]5C[C@H]65)nc5nc(C6CCC(F)(F)CC6)cc(CN6CC(F)(F)C6)c5c4=O)c32)CC(C)(C)O1 (atropisomer, axis not shown; (P)) [Example 621, N-[(1S)-1-[(3P)-3-{4-chloro-3-methanesulfonamido-1-[2-(2,2,6,6-tetramethylmorpholin-4-yl)ethyl]-1H-indazol-7-yl}-5-[(3,3-difluoroazetidin-1-yl)methyl]-7-(4,4-difluorocyclohexyl)-4-oxo-3H,4H-pyrido[2,3-d]pyrimidin-2-yl]-2-(3,5-difluorophenyl)ethyl]-2-[(2S,4R)-9-(difluoromethyl)-5,5-difluoro-7,8-diazatricyclo[4.3.0.0^2,4]nona-1(6),8-dien-7-yl]acetamide]
EC50 [2]: 5 pM

Cc1cc(C2CCC(F)(F)CC2)nc2nc([C@H](Cc3cc(F)cc(F)c3)NC(=O)Cn3nc(C(F)(F)F)c4c3C[C@@H]3C[C@H]43)n(-c3ccc(Cl)c4c(NS(C)(=O)=O)nn(CCN5CC(C)(C)OC(C)(C)C5)c34)c(=O)c12 (atropisomer, axis not shown; (P)) [Example 612, N-[(1S)-1-[(3P)-3-{4-chloro-3-methanesulfonamido-1-[2-(2,2,6,6-tetramethylmorpholin-4-yl)ethyl]-1H-indazol-7-yl}-7-(4,4-difluorocyclohexyl)-5-methyl-4-oxo-3H,4H-pyrido[2,3-d]pyrimidin-2-yl]-2-(3,5-difluorophenyl)ethyl]-2-[(2S,4S)-9-(trifluoromethyl)-7,8-diazatricyclo[4.3.0.0^2,^4]nona-1(6),8-dien-7-yl]acetamide]
EC50 [2]: 28 pM
